Paper PMC4151877 (Science (New York, N.Y.), 2014)

Tests used:
NaAtm1 [1] = target: T1, NaAtm1 (Novosphingobium aromaticivorans, UniProt Q2G506); assay: ligand-stimulated ATPase activity, Michaelis-Menten type analysis; assay type: biochemical; settings: ATP hydrolysis; stimulating ligand varied
T1 sequence (Q2G506 1-608): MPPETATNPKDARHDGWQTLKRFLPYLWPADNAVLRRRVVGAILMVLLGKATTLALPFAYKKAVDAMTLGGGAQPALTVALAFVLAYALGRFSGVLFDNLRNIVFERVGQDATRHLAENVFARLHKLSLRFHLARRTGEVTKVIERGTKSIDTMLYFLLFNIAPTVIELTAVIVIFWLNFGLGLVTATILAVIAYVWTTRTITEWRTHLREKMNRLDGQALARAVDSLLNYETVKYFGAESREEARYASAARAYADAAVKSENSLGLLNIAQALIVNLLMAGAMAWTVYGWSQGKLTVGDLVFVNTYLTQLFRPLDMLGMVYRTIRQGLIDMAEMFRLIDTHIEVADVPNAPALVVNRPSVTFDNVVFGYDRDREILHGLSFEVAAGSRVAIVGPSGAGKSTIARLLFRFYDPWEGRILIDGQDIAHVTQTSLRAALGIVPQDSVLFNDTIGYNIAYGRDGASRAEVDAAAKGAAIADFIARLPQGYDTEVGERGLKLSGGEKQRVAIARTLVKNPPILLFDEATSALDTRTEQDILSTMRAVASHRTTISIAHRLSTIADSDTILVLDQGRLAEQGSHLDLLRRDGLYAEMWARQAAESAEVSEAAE

NaAtm1 [2] = target: T1, NaAtm1; assay: ligand-stimulated ATPase activity; assay type: biochemical; settings: ATP hydrolysis

Row | Structure (SMILES) | Km (NaAtm1 [1]) | ATPase stimulation (NaAtm1 [2])
1 | N[C@@H](CCC(=O)N[C@@H](CS)C(=O)O)C(=O)O [γ-Glu-Cys] | γ-peptides GSH, γ-Glu-Cys, and ophthalmic acid | –
2 | N[C@@H](CS)C(=O)NCC(=O)O [Cys-Gly] | – | exhibit stronger ATPase activities relative to Cys-Gly and mono-carboxylic acids
3 | CSCC[C@H](N)C(=O)O [Met] | – | free amino acids Gly and Met to stimulate ATPase activity as effectively as GSH
